Data on six sequences can be found in patent publication US10709735B2, “Immunotherapy against neuronal and brain tumors” (IMMATICS BIOTECHNOLOGIES GMBH, priority 2007, dated 2020).

The assay concerns CD8+ T cells. The experiment in a line: In vitro immunogenicity: priming of CD8+ T cells with peptide-MHC/anti-CD28 coated beads (aAPC), tetramer readout. In kind it is cell-based, human. The following applies: CD8+ T cells of healthy HLA-A*02+ donors, three stimulation cycles with high density beads; positive well: at least 1% specific tetramer+ among CD8+ T cells and at least 10x median of negative controls. As to the method:
To perform in vitro stimulations by artificial antigen presenting cells (aAPC) loaded with peptide-MHC complex (pMHC) and anti-CD28 antibody, PBMCs (peripheral blood mononuclear cells) were isolated from fresh HLA-A*02+ buffy coats by using standard density gradient separation medium (PAA, Cölbe, Germany). Buffy coats were obtained from the Katharinenhospital Stuttgart. Isolated PBMCs were incubated overnight in T-cell medium (TCM) for human in vitro priming consisting of RPMI-Glutamax (Invitrogen, Karlsruhe, Germany) supplemented with 10% heat inactivated human AB serum (PAA, Cölbe, Germany), 100 U/ml Penicillin/100 μg/ml Streptomycin (Cambrex, Verviers, Belgium), 1 mM sodium pyruvate (CC Pro, Neustadt, Germany) and 20 μg/ml Gentamycin (Cambrex). CD8+ lymphocytes were isolated using the CD8+ MACS positive selection kit (Miltenyi, Bergisch Gladbach, Germany) according to the manufacturer's instructions. Obtained CD8+ T cells were incubated until use in TCM supplemented with 2.5 ng/ml IL-7 (PromoCell, Heidelberg, Germany) and 10 U/ml IL-2 (Chiron, Munich, Germany). Generation of pMHC/anti-CD28 coated beads, T-cell stimulations and readout was performed as described before (Walter et al., 2003) with minor modifications. Briefly, biotinylated recombinant HLA-A*0201 molecules lacking the transmembrane domain and biotinylated at the carboxy terminus of the heavy chain were produced following a method described by Altman et al., 1996). The purified costimulatory mouse IgG2a anti human CD28 Ab 9.3 (Jung et al., 1987) was chemically biotinylated using Sulfo-N-hydroxysuccinimidobiotin as recommended by the manufacturer (Perbio, Bonn, Germany). 5.60 μm large streptavidin coated polystyrene particles beads were used (Bangs Laboratories, Illinois/USA). pMHC was used as positive and negative controls were A*0201/MLA-001 (peptide […] from modified Melan-A/MART-1) and A*0201/DDX5-001 ([…] from DDX5), respectively.
800,000 beads/200 μl were coated in 96-well plates in the presence of 600 ng biotin anti-CD28 plus 200 ng relevant biotin-pMHC (high density beads) or 2 ng relevant plus 200 ng irrelevant (pMHC library) MHC (low density beads). Stimulations were initiated in 96-well plates by conincubating 1×10^6 CD8+ T cells with 2×10^5 washed coated beads in 200 μl TCM supplemented with 5 ng/ml IL-12 (PromoCell) for 3-4 days at 37° C. Half of the medium was then exchanged by fresh TCM supplemented with 80 U/ml IL-2 and incubating was continued for 3-4 days at 37° C. This stimulation cycle was performed for a total of three times. Finally, tetrameric analyses were performed with fluorescent MHC tetramers (produced as described by (Altman et al., 1996)) plus antibody CD8-FITC clone SK1 (BD, Heidelberg, Germany) on a FACSCalibur or a LSR II flow cytometer (BD). Peptide specific cells were calculated as percentage of total CD8+ T cells. Evaluation of tetrameric analysis was performed using the software FCS Express (De Novo Software). In vitro priming of specific tetramer+ CD8+ lymphocytes was detected by appropriate gating and by comparing to negative control stimulations.
Results shown have been obtained by stimulation of CD8+ cells with high density beads. As different human serum lots may highly affect the immunogenicity results, only assays in which one and the same serum lot was used, were evaluated together.
With “AIIDGVESV (listed as Homo sapiens) [PTP-003, PTPRZ1-derived tumor associated peptide, HLA A*02]”, the Immunogenicity detected entry is listed as “Yes”.

On to “ALTTLMHQL (listed as Homo sapiens) [PTP-001, PTPRZ1-derived tumor associated peptide, HLA A*0205]”, for which the Immunogenicity detected result is recorded as “Yes”. The same measure for “FLLPDTDGL (listed as Homo sapiens) [PTP-004, PTPRZ1-derived tumor associated peptide, HLA A*02]”: “Yes”; for “FLYKVILSL (listed as Homo sapiens) [PTP-002, PTPRZ1-derived tumor associated peptide, HLA A*02]”: “Yes”. The same measure for “KVFAGIPTV (listed as Homo sapiens) [PTP-005, PTPRZ1-derived tumor associated peptide, HLA A*02]”: “Yes”; for “SLWAGVVVL (listed as Homo sapiens) [CHI-001, CHI3L2-derived tumor associated peptide, HLA A*02]”: “Yes”.
